From ChEMBL document CHEMBL5625201, “Discovery and structure-activity relationship studies of novel α-ketoamide derivatives targeting the SARS-CoV-2 main protease” (Eur J Med Chem, 2023)

What was measured:
SARS-CoV-2 [1] = experiment: Antiviral activity against SARS-CoV-2 infected in human HPAEpiC cells assessed as reduction in viral replication by RT-qPCR assay; assay type: functional, organism-based; conditions: Severe acute respiratory syndrome coronavirus 2, HPAEpiC
[2] = biological target: T1, Replicase polyprotein 1ab (Severe acute respiratory syndrome coronavirus 2, UniProt P0DTD1); experiment: Inhibition of SARS-CoV-2 main protease by FRET assay
Cytochrome P450 3A4 = Cytochrome P450 3A4 (Homo sapiens, UniProt P08684); experiment: Inhibition of CYP3A4 (unknown origin); assay type: ADME
Cytochrome P450 2C9 = Cytochrome P450 2C9 (Homo sapiens, UniProt P11712); experiment: Inhibition of CYP2C9 (unknown origin); assay type: ADME
[3] = Cytotoxicity against African green monkey Vero cells; assay type: toxicity, cell-based; conditions: chlorocebus sabaeus
[4] = Cytotoxicity against human BEAS-2B cells; assay type: toxicity, cell-based
[5] = biological target: T1, Replicase polyprotein 1ab; experiment: Inhibition of SARS-CoV-2 Main protease using MCA-AVLQSGFR-Lys(DNP)-Lys-NH2 as substrate preincubated for 10 mins followed by substrate addition by FRET assay
SARS-CoV-2 [6] = experiment: Antiviral activity against SARS CoV-2 infected in African green monkey VeroE6/TMPRSS2 assessed as reduction in plaque formation measured after 2 days by crystal violet staining based assay; assay type: functional, organism-based; conditions: Severe acute respiratory syndrome coronavirus 2, VeroE6/TMPRSS2, 48 h

Chain of Cytochrome P450 3A4 (P08684 whole entry): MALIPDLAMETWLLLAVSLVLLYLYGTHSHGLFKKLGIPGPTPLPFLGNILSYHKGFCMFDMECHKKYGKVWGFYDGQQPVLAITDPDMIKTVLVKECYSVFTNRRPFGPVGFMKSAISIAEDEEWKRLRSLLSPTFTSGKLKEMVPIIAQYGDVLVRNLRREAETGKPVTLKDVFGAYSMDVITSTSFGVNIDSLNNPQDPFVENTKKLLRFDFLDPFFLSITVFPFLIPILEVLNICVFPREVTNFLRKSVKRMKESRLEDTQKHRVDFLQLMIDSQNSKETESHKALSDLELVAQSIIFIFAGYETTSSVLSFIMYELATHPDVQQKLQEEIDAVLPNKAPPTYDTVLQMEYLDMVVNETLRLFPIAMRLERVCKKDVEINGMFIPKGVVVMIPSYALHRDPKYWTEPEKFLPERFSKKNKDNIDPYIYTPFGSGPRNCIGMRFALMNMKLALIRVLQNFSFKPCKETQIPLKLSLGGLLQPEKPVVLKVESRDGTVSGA
Chain of Cytochrome P450 2C9 (P11712 whole entry): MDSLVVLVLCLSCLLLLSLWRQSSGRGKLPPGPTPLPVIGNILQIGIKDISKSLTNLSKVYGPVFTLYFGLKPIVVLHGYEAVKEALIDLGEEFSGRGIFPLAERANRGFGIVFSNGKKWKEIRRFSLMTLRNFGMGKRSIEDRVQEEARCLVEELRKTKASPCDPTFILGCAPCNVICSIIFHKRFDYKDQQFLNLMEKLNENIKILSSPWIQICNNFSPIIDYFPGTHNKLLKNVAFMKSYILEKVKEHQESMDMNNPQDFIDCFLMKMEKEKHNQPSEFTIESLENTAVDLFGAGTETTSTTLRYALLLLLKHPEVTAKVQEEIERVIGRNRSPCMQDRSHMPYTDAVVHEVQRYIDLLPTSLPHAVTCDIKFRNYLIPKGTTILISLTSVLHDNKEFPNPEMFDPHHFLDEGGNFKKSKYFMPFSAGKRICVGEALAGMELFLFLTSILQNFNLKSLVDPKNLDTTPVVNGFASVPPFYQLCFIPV

With CCC(CC)COC(=O)[C@H](C)N[P@](=O)(OC[C@H]1O[C@@](C#N)(c2ccc3c(N)ncnn23)[C@H](O)[C@@H]1O)Oc1ccccc1 the EC50 (SARS-CoV-2 [1]) was 364 nM.
Work on CC(C)(C)[C@H](NC(=O)C(F)(F)F)C(=O)N1C[C@H]2[C@@H]([C@H]1C(=O)N[C@H](C#N)C[C@@H]1CCNC1=O)C2(C)C yielded an EC50 (SARS-CoV-2 [1]) of 50 nM.
In the case of O=C(NCc1ccccn1)C(=O)[C@@H](Cc1ccccc1)NC(=O)[C@H]1COCCN1C(=O)[C@@H]1C[C@@H]2[C@H](C1)C2(F)F, the IC50 [2] is reported as 23.6 nM.
With O=C(CCCc1ccccc1)N[C@H](Cc1ccccc1)C(=O)C(=O)NCc1ccccn1 the “inhibition (INH)” value (Cytochrome P450 3A4) was “Active”, the “inhibition (INH)” value (Cytochrome P450 2C9) was “Active” and the IC50 [2] was 33.8 nM.
O=C(CNC(=O)[C@@H]1C[C@@H]2[C@H](C1)C2(F)F)N[C@H](Cc1ccccc1)C(=O)C(=O)NCc1ccccn1 gave an IC50 [2] of 17.9 nM.
C[C@@H](NC(=O)CC1CCC(F)(F)CC1)C(=O)N[C@H](Cc1ccccc1)C(=O)C(=O)NCc1ccccn1 gave an IC50 [2] of 16.1 nM.
In the case of CN(CC(=O)N[C@H](Cc1ccccc1)C(=O)C(=O)NCc1ccccn1)C(=O)C1CCC(F)(F)CC1, the IC50 [2] is reported as 30.6 nM.
Work on N#Cc1cc(C(=O)NCC(=O)N[C@H](Cc2ccccc2)C(=O)C(=O)NCc2ccccn2)ccc1F yielded an IC50 [2] of 168 nM.
With O=C(CNC(=O)c1ccccc1)N[C@H](Cc1ccccc1)C(=O)C(=O)NCc1ccccn1 the “inhibition (INH)” value (Cytochrome P450 3A4) was “Active”, the “inhibition (INH)” value (Cytochrome P450 2C9) was “Active” and the IC50 [2] was 141 nM.
In the case of O=C(CCc1ccccc1)N[C@H](Cc1ccccc1)C(=O)C(=O)NCc1ccccn1, the “inhibition (INH)” value (Cytochrome P450 3A4) is reported as “Active”, the “inhibition (INH)” value (Cytochrome P450 2C9) is reported as “Active” and the IC50 [2] is reported as 86.7 nM.
For COC[C@@H](NC(=O)C1CCC(F)(F)CC1)C(=O)N[C@H](Cc1ccccc1)C(=O)C(=O)NCc1ccccn1, the IC50 [2] was 17 nM, the CC50 [3] was greater than 100000 nM and the CC50 [4] was greater than 100000 nM. It also gave an EC50 (SARS-CoV-2 [1]) of 59.5 nM.
Work on O=C(CNC(=O)C1CCC(F)(F)CC1)N[C@H](Cc1ccc(Cl)c(Cl)c1)C(=O)C(=O)NCc1ccccn1 yielded an IC50 [2] of 34.4 nM.
Molecule C[C@@H](NC(=O)C1CCC(F)(F)CC1)C(=O)N[C@H](Cc1ccccc1)C(=O)C(=O)NCc1ccccn1 has a CC50 [3] greater than 100000 nM, a CC50 [4] greater than 100000 nM and an EC50 (SARS-CoV-2 [1]) of 65.3 nM.
For C[C@@H](NC(=O)[C@@H]1C[C@@H]2[C@H](C1)C2(F)F)C(=O)N[C@H](Cc1ccccc1)C(=O)C(=O)NCc1ccccn1, the CC50 [3] was greater than 100000 nM, the CC50 [4] was greater than 100000 nM and the EC50 (SARS-CoV-2 [1]) was 97.8 nM.
O=C(Cc1ccccc1)N[C@H](Cc1ccccc1)C(=O)C(=O)NCc1ccccn1 showed an IC50 [2] of 219 nM.
With O=C(CNC(=O)C1CCC(F)(F)CC1)N[C@H](Cc1ccccc1)C(=O)C(=O)NCc1ccccn1 the CC50 [3] was greater than 100000 nM, the CC50 [4] was greater than 100000 nM and the EC50 (SARS-CoV-2 [1]) was 102 nM.
Molecule O=C(NCc1ccccn1)C(=O)[C@@H](Cc1ccccc1)NC(=O)[C@H]1CC(F)(F)CN1C(=O)[C@@H]1C[C@@H]2[C@H](C1)C2(F)F has an IC50 [2] of 37.2 nM.
O=C(NCc1ccccn1)C(=O)[C@@H](Cc1ccccc1)NC(=O)[C@H]1CC(F)(F)CN1C(=O)CC1CCC(F)(F)CC1 gave an IC50 [2] of 35 nM.
Molecule O=C(NCc1ccccn1)C(=O)[C@@H](Cc1ccccc1)NC(=O)c1ccccc1 has an IC50 [2] of 208 nM.
O=C(CC1CCC(F)(F)CC1)NCC(=O)N[C@H](Cc1ccccc1)C(=O)C(=O)NCc1ccccn1 gave an IC50 [2] of 15 nM.
In the case of O=C(COc1ccccc1)N[C@H](Cc1ccccc1)C(=O)C(=O)NCc1ccccn1, the “inhibition (INH)” value (Cytochrome P450 3A4) is reported as “Active”, the “inhibition (INH)” value (Cytochrome P450 2C9) is reported as “Active” and the IC50 [2] is reported as 55.5 nM.
Work on O=C(NCc1ccccn1)C(=O)[C@@H](Cc1ccccc1)NC(=O)C1(NC(=O)C2CCC(F)(F)CC2)CC1 yielded an IC50 [2] of 21.2 nM.
In the case of O=C(CNC(=O)c1ccc(Cl)c(F)c1)N[C@H](Cc1ccccc1)C(=O)C(=O)NCc1ccccn1, the IC50 [2] is reported as 18.5 nM.
In the case of CC[C@@H](NC(=O)C1CCC(F)(F)CC1)C(=O)N[C@H](Cc1ccccc1)C(=O)C(=O)NCc1ccccn1, the IC50 [2] is reported as 41.6 nM.
Work on O=C(NCc1ccccn1)C(=O)[C@@H](Cc1ccccc1)NC(=O)[C@H]1COCCN1C(=O)CC1CCC(F)(F)CC1 yielded an IC50 [2] of 10.9 nM, a CC50 [3] greater than 100000 nM and a CC50 [4] greater than 100000 nM. It also gave an EC50 (SARS-CoV-2 [1]) of 66.4 nM.
In the case of [2H][C@](C(=O)N[C@@H](C)c1ccc(F)cc1)(c1ccccc1)N(C(=O)C(C)=O)c1ccc2c(c1)oc1ccccc12, the IC50 [5] is reported as 8 nM and the EC50 (SARS-CoV-2 [6]) is reported as 11 nM.
